Measurements as given in patent US20220387359A1, “SYNERGISTIC INHIBITORS OF CREB-MEDIATED GENE TRANSCRIPTION” (OREGON HEALTH & SCIENCE UNIVERSITY, priority 2019, published 2022).
Structures can show the parent of a compound that is named as a salt. Where two headings read alike, the source gives them in different places. One block for each compound: values may come before it.

How the values were obtained:
[1] = from reference 15; cited from earlier work
[2] = test system: CREB-mediated gene transcription; assay: CREB transcription renilla luciferase reporter assay in HEK 293T cells; type: cell-based; details: for IC50: Homo sapiens; for combination index (CI) in inhibiting CREB-mediated gene transcription: Chou-Talalay; for effect of combination with 666-15 on inhibition of CREB-mediated gene transcription: compound combined with 666-15
Method: ^a The IC50 refers to the concentration needed to inhibit 50% of the CREB-mediated gene transcription in HEK 293T cells using a transcription renilla luciferase reporter assay. The data are presented as mean±standard deviation (SD) of at least two independent experiments, which were performed in triplicates.
To test this possibility, we employed a transcription luciferase reporter assay in HEK 293T cells.^22 Briefly, the cells were transfected with a CREB renilla luciferase reporter plasmid (CRE-RLuc). This plasmid expresses renilla luciferase under the control of three tandem copies of CRE in the promoter region.
Inhibition of CREB-mediated gene transcription. HEK 293T cells were transfected with CRE-RLuc. Then the cells were treated with increasing concentrations of individual compounds (FIG. 2A) or drug combinations (FIG. 2B) for 30 min before the addition of Fsk (10 μM) for 5 h. The renilla luciferase activity was normalized to the protein concentration in each well and expressed as relative luciferase unit (RLU)/μg protein. The errors are SEM from one representative experiment in triplicate.
HEK293T cells in a well of 6-well plate were transfected with a plasmid (1 μg) encoding renilla luciferase under the control of three copies of CRE (pCRE-RLuc) using Lipofectamin^2000 (Life Technologies) for 3 h. Then the cells were replated into a 96-well plate and the cells were allowed to attach to the bottom of the plate for overnight. The cells were treated with different concentrations of the compounds for 30 min, when Fsk (10 μM) was added to the cells. The cells were further incubated for 5 h at 37° C. The media were removed and the cells were lysed in 30 μl 1× renilla luciferase lysis buffer (Promega) and the renilla luciferase activity was measured using the renilla luciferase assay system (Promega). The protein concentration in each well was determined using the Protein Assay Dye Reagent Concentrate (Bio-rad). The luciferase activity in each well was normalized to the protein concentration and expressed as relative luciferase unit (RLU)/μg protein. The IC50 was calculated in Prism 5.0 using the non-linear regression analysis.

[3] = aqueous solubility in ddH2O; type: physicochemical; details: water
From the text: Furthermore, we discovered a novel compound that can potentiate 666-15's inhibitory effect against CREB-mediated gene transcription in living cells.
The synthesis of compound 3 is presented in Scheme 1. […] Under the coupling conditions we used before (BOP, DIPEA, room temperature),^13 a mixture of compositional isomers 6 and 7 (2-(3-(3-((tert-butoxycarbonyl)amino)propoxy)-2-naphthamido)-5-chlorophenyl 3-(2-((tert-butoxy carbonyl)amino)ethoxy)-2-naphthoate) involving acyl group swapping was obtained. These two isomers were only partially separable by conventional silica gel column chromatograph. […] The formation of the unanticipated alternative ester 7 was likely a result of generation of imide intermediate 8 (2-(3-(2-((tert-butoxycarbonyl)amino)ethoxy)-2-naphthamido)-5-chloro-3-hydroxyphenyl 3-(3-((tert-butoxycarbonyl) amino)propoxy)-2-naphthoate) although it was not detected from the reaction mixture. The intermediate 8 could be generated either before the formation of 6 (2-(3-(2-((tert-butoxycarbonyl) amino)ethoxy)-2-naphthamido)-5-chlorophenyl 3-(3-((tert-butoxycarbonyl)amino) propoxy)-2-naphthoate) or after 6 was formed. Once 8 was produced, it could generate either 6 or 7 through an ester bond formation (Scheme 1). […] The Boc groups (tert-butyloxycarbonyl protecting groups) in 6 were then deprotected under acidic condition (HCl, DCM) to give 3 uneventfully. […]

[4] = conversion of ester 3 in complete cell culture media (DMEM with 10% FBS), HPLC; type: in vitro ADME; details: 37° C.
Method: With the desired compound 3 in hand, we first investigated the possibility of transformation of 3 into 666-15 in the complete cell culture media (Dulbecco's Modified Eagle Medium with 10% fetal bovine serum (FBS)). […] In stark contrast to the structural congener 2,^15 only a small amount of 666-15 was generated under the reaction condition. In order to investigate if simple ester hydrolysis was occurring to generate products 9 and 10 (FIG. 2A), we compared the main peaks eluted at 10.5 min and 11.2 min with standard samples of 9 and 10 by HPLC.
Compound 3 (200 μM) was incubated with complete tissue culture media (DMEM with 10% FBS) at 37° C. for various time periods. An aliquot of 10 μl was taken at a given time point and mixed with acetonitrile (90 μL). The mixture was centrifuged at 14,000×rpm for 5 min at room temperature in a tabletop centrifuge to precipitate proteins. The supernatant was collected and analyzed by HPLC eluting with a linear of water and acetonitrile, both of which contained 0.1% TFA.

[5] = stability of stock solution in DMSO; type: physicochemical; details: long-term storage of stock solution
KIX-KID interaction = KIX-KID interaction (Homo sapiens, UniProt Q92793); assay: split renilla luciferase complementation assay of KIX-KID interaction; type: cell-based
KIX-KID interaction, sequence (Q92793 587-666 limits assumed): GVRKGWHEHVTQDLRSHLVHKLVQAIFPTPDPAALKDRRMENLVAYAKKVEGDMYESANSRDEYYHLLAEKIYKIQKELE

NR4A2 = assay: endogenous CREB target gene expression by qRT-PCR in HEK 293T cells; type: cell-based; details: Fsk-stimulated HEK 293T cells
MDA-MB-231 cells = assay: cell growth inhibition MTT assay; type: cell-based
Method: Then the viable cells were quantified by the MTT reagent. […] The data are presented as mean+SEM. The SEM was from one representative experiment performed in duplicates.
The cells were plated in 96-well plates at 1,000 cells/well and allowed to attach to the bottom of the plate for overnight. Then the cells were treated with different concentrations of compounds for 72 h at 37° C. At the end of treatment, the viable cells were determined by incubating cells with MTT reagent (0.5 mg/mL) in the complete tissue culture media for 3 h. Then the media were removed and the formed purple formazan was dissolved in DMSO for quantification by absorbance at 570 nm using a SpectraMax i3 plate reader (Molecular Devices). The percent of growth is defined as 100×(Atreated−Ainitial)/(Acontrol−Ainitial), where Atreated represents absorbance in wells treated with a compound, Ainitial represents the absorbance at time 0, and Acontrol denotes media-treated cells.

[6] = HEK 293T cells, CRE-RLuc reporter, Fsk stimulated, mean ± SD of at least two independent experiments, read-out: CREB inhibition (IC50)

SMILES: NCCCOc1cc2ccccc2cc1C(=O)Oc1cc(Cl)ccc1NC(=O)c1cc2ccccc2cc1OCCN (as salt: hydrochloride) [Compound 3, 2-(3-(2-Aminoethoxy)-2-naphthamido)-5-chlorophenyl 3-(3-Aminopropoxy)-2-naphthoate Dihydrochloride]
melting point: 216 to 217 °C

SMILES: NCCCOc1cc2ccccc2cc1C(=O)Nc1ccc(Cl)cc1OC(=O)c1cc2ccccc2cc1OCCCN [Compound 2, 2-(3-(3-aminopropoxy)-2-naphthamido)-5-chlorophenyl 3-(3-aminopropoxy)-2-naphthoate]
aqueous solubility in ddH2O [1]: > 100 mg/mL

SMILES: NCCCOc1cc2ccccc2cc1C(=O)Oc1cc(Cl)ccc1NC(=O)c1cc2ccccc2cc1OCCN [Compound 3, 2-(3-(2-Aminoethoxy)-2-naphthamido)-5-chlorophenyl 3-(3-Aminopropoxy)-2-naphthoate Dihydrochloride]
IC50 ([2]; HEK-293T, read-out: CREB inhibition (IC50, μM)): 0.25 ± 0.11 µM | solubility [3]: > 100 mg/mL | conversion in complete cell culture media [4]: rapidly converted into four new product peaks | stability in DMSO [5]: unstable in DMSO for long-term storage

SMILES: NCCCOc1cc2ccccc2cc1C(=O)Nc1ccc(Cl)cc1O [Compound 11, 3-(3-aminopropoxy)-N-(4-chloro-2-hydroxyphenyl)-2-naphthamide]
combination index (CI) in inhibiting CREB-mediated gene transcription ([2]; 11 (5 μM) combined with 666-15 0.01 μM): 2.87 | combination index (CI) in inhibiting CREB-mediated gene transcription ([2]; 11 (5 μM) combined with 666-15 0.05 μM): 0.31 | combination index (CI) in inhibiting CREB-mediated gene transcription ([2]; 11 (5 μM) combined with 666-15 0.1 μM): 0.17 | combination index (CI) in inhibiting CREB-mediated gene transcription ([2]; 11 (5 μM) combined with 666-15 0.5 μM): 0.37 | combination index (CI) in inhibiting CREB-mediated gene transcription ([2]; 11 (5 μM) combined with 666-15 1.0 μM): 0.56 | combination index (CI) in inhibiting CREB-mediated gene transcription ([2]; 11 (5 μM) combined with 666-15 5.0 μM): 2.41 | effect of combination with 666-15 on inhibition of CREB-mediated gene transcription ([2]; HEK 293T cells): significantly potentiated activity of 666-15 | IC50 [2, 6]: 26.3 ± 13.6 µM | IC50 (KIX-KID interaction): > 50 µM | expression level of NR4A2 (NR4A2; 666-15 (50 nM) combined with compound 11 (5 μM)): significant inhibition of NR4A2 transcription was observed | expression level of NR4A2 (NR4A2; compound 11 alone, 5 μM): did not inhibit the expression of NR4A2 | combination index (CI) of anti-proliferative effect (MDA-MB-231 cells; 11 (0.5 or 1.0 μM) combined with 666-15, 72 h): less than 1.0 | antiproliferative effect (cell growth) (MDA-MB-231 cells; 11 alone, 0.5 or 1.0 μM, 72 h): did not appreciably inhibit the cell growth

IC50 [2, 6]: > 50 µM | melting point: 128 to 129 °C
SMILES: O=C1NCCOc2cc3ccccc3cc21 [Compound 12, 3,4-dihydronaphtho[2,3-f][1,4]oxazepin-5(2H)-one]
CREB inhibition potency ([2]; HEK 293T cells, compound alone): inactive | effect of combination with 666-15 on inhibition of CREB-mediated gene transcription ([2]; HEK 293T cells): did not produce further inhibition of CREB-mediated gene transcription

solubility [3]: < 0.5 mg/mL
SMILES: NCCCOc1cc2ccccc2cc1C(=O)NCCOc1cc2ccccc2cc1C(=O)Nc1ccc(Cl)cc1O [Compound 666-15, 3-(3-aminopropoxy)-N-(2-((3-((4-chloro-2-hydroxyphenyl)carbamoyl)naphthalen-2-yl)oxy)ethyl)-2-naphthamide]
